These are literature values, as cited in patent US11357716B2, “Sunscreen compositions” (Kobo Products, Inc., priority 2016, dated 2022).

The conditions of data set [1]: Active: BEMT 4%.
The conditions of data set [2]: Active: BEMT 4%. The source holds these as a separate data set.

On to `CCCCC(CC)COc1ccc(-c2nc(-c3ccc(OC)cc3)nc(-c3ccc(OCC(CC)CCCC)cc3O)n2)c(O)c1` (centres unmarked) [BEMT, bis-ethylhexyloxyphenol methoxyphenyl triazine], for which the UVA-PF in vivo result in data set [1] is reported as “in vivo = 7.6 ± 2.2”. Besides, in data set [2], the SPF in vivo result was “in vivo = 7.3 ± 1.2”.
